This note sets out measurements from patent US20190022239A1, “NOVEL BIOMOLECULE CONJUGATES AND USES THEREFOR” (The University of Western Australia, priority 2016, published 2019).

Entries after “also recorded” stand apart in the source; their conditions may differ.

One series deals with 4T1 tumour. The experiment in a line: Anti-tumorigenic effect on 4T1 tumour growth. The format is in vivo, mice. Conditions: 2 μg, 6 injections in 2 weeks. The procedure: The inventors have also discovered that TNFα-CSG has anti-tumorigenic effects, as evidenced by reduced tumour growth and reduced cell proliferation. 4T1 tumour-bearing mice were treated with 2 μg TNFα-CSG or control CSG peptide 4 days after inoculation with 5×10^5 4T1 cells. Each mouse received a total of 6 injections in 2 weeks.

The subject of series [1] is macrophage cell line J774. The experiment in a line: Bioactivity: J774 macrophages on matrigel attached with TNFα-CSG. It is filed as cell-based. Conditions: 0.1 mmol on matrigel, 1 to 16 hrs. The procedure: Bioactivity of TNFα-CSG was assessed in vitro, specifically by incubating macrophage cell, line, J774, on matrigel attached with TNFα-CSG (0.1 mmol).
Series [2] deals with 4T1 breast carcinoma and RIP-Tag insulinoma. The experiment in a line: Tumour stiffness by optical coherence tomography/micro-elastography. The format is in vivo, mice. Conditions: 2 μg/day × 4 total injections.
Another series deals with RIP-Tag insulinoma. The experiment in a line: Immune cell infiltration in RIP-Tag insulinoma (immunofluorescence). It is filed as in vivo, mice. The following applies: 2 and 5 μg daily i.v. for 5 days, vs control groups. The procedure:
Mice bearing RIP-Tag insulinoma at 25 weeks of age were treated with 2 and 5 μg TNF60 -CSG (in 100 μL) by daily intravenous injection for 5 days. FIG. 6 presents microscopic evaluation of CD4+ and CD8+ T cells and circulatory CD11b macrophages detected by immunofluorescence staining of tissue cross sections.

The test system of a further series is atherosclerotic plaque. The experiment in a line: TNFα-CSG therapy of aging ApoE null mice. The following applies: for ALT / AST / Troponin: plasma, median (interquartile range).

Description for atherosclerotic plaque: Aging ApoE null mice were treated with 10 μg TNFα-CSG or 0.8 μg CSG peptide daily for five days by intravenous injection. Tissue, including aorta and plasma, were collected from euthanised animals at 70 weeks of age. Plasma samples were collected after 1 and 10 weeks of therapy and assessed for markers of (i) circulating cholesterol (total cholesterol, HDL and LDL), (ii) cardiac necrosis (troponin) and (iii) liver damage (alanine transaminase, ALT and aspartate transaminase, AST).

Turning to “TNFα-CSG: Mature murine TNFα (SEQ ID NO:6) with C-terminal conjugated peptide CSGRRSSKC connected via a GGG linker; recombinant fusion protein”, in the series with 4T1 tumour, the “ratio of cytotoxic T cells to immune suppressor T cells” value is on record as “significantly higher ratio of cytotoxic T cells to immune suppressor T cells” and the “tumour cell proliferation (Ki67+)” value is “significant reduction in tumour cell proliferation”. For the same substance, the “tumour size and weight” value with 4T1 tumour (vs control CSG peptide) was “significantly reduced”. For the same substance, the “protease secretion by J774 cells” value in series [1] was “secretion of MMP-2 and MMP-9”. Besides, in series [2], the tumour stiffness result is on record as “below 100 kPa”. For the same substance, the “tissue stiffness (stiffness >100 kPa) and stiffness variance” value in series [2] (frequency distribution) was “significantly reduced”. In the series on RIP-Tag insulinoma, the “immune cell infiltration (CD4+, CD8+ T cells, CD11b macrophages)” value is recorded as “significant increase in immune cell infiltration”. Also, the “plaque burden (plaque positive area)” value with atherosclerotic plaque (10 μg daily i.v. for five days) is recorded as “significantly reduced plaque burden”. Besides, in the series with atherosclerotic plaque (10 weeks after administration), the “circulating HDL levels” value is given as “increase in circulating HDL levels; also recorded: significantly increased” and the “circulating LDL” value was “reduction in LDL”. The “plasma LDL:HDL ratio” value with atherosclerotic plaque (10 weeks after therapy) is recorded as “reduced”. Also, in the series with atherosclerotic plaque (after 1 week of therapy), the “plasma LDL:HDL ratio” value was “increased”. In the series on atherosclerotic plaque (mouse, in vivo), the “activated endothelia (CD31+, endoglin+) in plaque intima” value is given as “increased the expression of activate endothelia” and the “macrophage content (CD11b+) in plaque” value was “reduced macrophage content”. Besides, the “ECM in plaque intima (collagen I, collagen IV, laminin)” value in the series with atherosclerotic plaque (mouse, in vivo, iv) was “degraded ECM in plaque intima”. The “cardiac or liver toxicity” value with atherosclerotic plaque (plasma troponin, ALT, AST) is recorded as “did not elevate cardiac or liver toxicity”. In the series on atherosclerotic plaque (1 week), the ALT was 33.3 (15.4-115.5) U/L, the AST is 106 (74.0-195.5) U/L and the Troponin is listed as 15.3 (10.7-30.2) ng/L. Also, in the series with atherosclerotic plaque (10 weeks), the ALT is 26.0 (18.5-79.8) U/L, the AST is given as 81.5 (52.3-184.3) U/L and the Troponin was 15.1 (5.7-24.0) ng/L.
